# Molecular target: Estrogen receptor (Ovis aries) (UniProt P49885+Q9TU15)
row,Compound,RAC
1,C[C@]12CC[C@@H]3c4cc(F)c(O)cc4CC[C@H]3[C@@H]1CC[C@@H]2O,86
2,COc1ccc2c(c1)CC[C@@H]1[C@@H]2CC[C@]2(C)C(=O)[C@H](Br)C[C@@H]12,3.5
3,CCC(c1ccc(O)c(Br)c1)C(CC)c1ccc(O)c(Br)c1 (stereo not drawn),2.6
4,CC[C@H](c1ccc(O)cc1)[C@@H](CC)c1ccc(O)cc1,300
5,COc1ccc2c(c1)CC[C@@H]1[C@@H]2CC[C@]2(C)C(=O)CC[C@@H]12,12
6,COc1ccc2c(c1)CC[C@@H]1[C@@H]2CC[C@]2(C)C(=O)[C@@H](Br)C[C@@H]12,0.14
7,C[C@]12CC[C@@H]3c4ccc(O)c(Br)c4CC[C@H]3[C@@H]1CC[C@@H]2O,10
8,CCC(c1ccc(O)c(I)c1)C(CC)c1ccc(O)c(I)c1 (stereo not drawn),3.2
9,CCC(c1ccc(O)c(F)c1)C(CC)c1ccc(O)c(F)c1 (stereo not drawn),64
10,COc1ccc2c(c1)CC[C@@H]1[C@@H]2CC[C@]2(C)C(=O)[C@H](Cl)C[C@@H]12,0.48
11,CCC(c1ccc(O)c(I)c1)C(CC)c1cc(I)c(O)c(I)c1 (stereo not drawn),0.14
12,CCC(c1ccc(O)cc1)C(CC)c1cc(I)c(O)c(I)c1 (stereo not drawn),1.9
13,C[C@]12CC[C@@H]3c4ccc(O)cc4CC[C@H]3[C@@H]1C[C@@H](I)[C@@H]2O,100
14,C[C@]12CC[C@@H]3c4ccc(O)cc4CC[C@H]3[C@@H]1C[C@@H](Cl)[C@@H]2O,100
15,C[C@]12CC[C@@H]3c4ccc(O)cc4CC[C@H]3[C@@H]1C[C@@H](Br)[C@H]2O,4.8
16,C[C@]12CC[C@@H]3c4ccc(O)cc4CC[C@H]3[C@@H]1C[C@@H](Br)[C@@H]2O,127
17,C[C@]12CC[C@@H]3c4ccc(O)cc4CC[C@H]3[C@@H]1C[C@H](I)[C@@H]2O,57
18,CCC(c1ccc(O)c(Br)c1)C(CC)c1cc(Br)c(O)c(Br)c1 (stereo not drawn),0.72
19,CCC(c1ccc(O)cc1)C(CC)c1ccc(O)c(I)c1 (stereo not drawn),14
20,C[C@]12CC[C@@H]3c4cc(I)c(O)cc4CC[C@H]3[C@@H]1CC[C@@H]2O,< 0.1
21,CCC(c1cc(I)c(O)c(I)c1)C(CC)c1cc(I)c(O)c(I)c1 (stereo not drawn),0.002
22,C[C@]12CC[C@@H]3c4ccc(O)c(F)c4CC[C@H]3[C@@H]1CC[C@@H]2O,128
23,CCC(c1ccc(O)cc1)C(CC)c1ccc(O)c(F)c1 (stereo not drawn),205
24,C[C@]12CC[C@@H]3c4cc(Br)c(O)cc4CC[C@H]3[C@@H]1CC[C@@H]2O,1.2
25,C[C@]12CC[C@@H]3c4ccc(O)cc4CC[C@H]3[C@@H]1C[C@@H](Cl)[C@H]2O,9.2
26,C[C@]12CC[C@@H]3c4ccc(O)cc4CC[C@H]3[C@@H]1C[C@H](Br)[C@@H]2O,4.7
27,CCC(c1ccc(O)cc1)C(CC)c1ccc(O)c(Br)c1 (stereo not drawn),16
28,CCC(c1cc(Br)c(O)c(Br)c1)C(CC)c1cc(Br)c(O)c(Br)c1 (stereo not drawn),< 0.17

# From ChEMBL document CHEMBL1121517, “Estrogen receptor based imaging agents. 1. Synthesis and receptor binding affinity of some aromatic and D-ring halogenated estrogens” (J Med Chem, 1980)
